According to patent publication US10406151B2, “Method of inducing autophagy” (Mitsubishi Gas Chemical Company, Inc., priority 2016, dated 2019):

Tests used:
HeLa cells [1] = experiment: Evaluation of autophagy by fluorescence microscopy with Cyto-ID autophagy detection kit; assay type: cell-based; conditions: culture for 1 day, fluorescence intensity same as rapamycin of the kit as reference
Description: (§1) The cells were cultured at 37° C. under 5% CO2. The culture medium used was D-MEM (Invitrogen-Gibco) to which 10% fetal bovine serum was added.
(§2) After culture for 1 day, the range in which autophagy occurred was measured by fluorescence microscopic observation using a Cyto-ID (registered trademark) autophagy detection kit (Cosmo Bio Co., Ltd.). […] Similarly, the 50% cell mortality concentration was also determined from the slope using a Cell Counting Kit-8 (Dojindo Laboratories Co., Ltd.), which is kit for measuring cell counts.

HeLa cells [2] = conditions: for 50% cell mortality concentration: culture for 1 day, determined from the slope, Cell Counting Kit-8
Description: as §1, §2

SMILES | concentration inducing autophagy equal to rapamycin reference (HeLa cells [1]) | 50% cell mortality concentration (HeLa cells [2]) | toxicity among the pyrroloquinoline quinone species (in words) (HeLa cells [2]; conclusion from Table 1)
O=C(O)c1cc(C(=O)O)c2c(n1)C(=O)C(=O)c1cc(C(=O)O)[nH]c1-2 [Example 1, Disodium 4,5-Dioxo-4,5-dihydro-1H-pyrrolo[2,3-f]quinoline-2,7,9-tricarboxylic Acid] | 0.8 mg/L | 123 mg/L | –
C[S+](C)[O-] [comparative example 1, dimethyl sulfoxide, reference compound] | at least 1000 mg/L | 674 mg/L | –
COC(=O)c1cc(C(=O)OC)c2c(n1)C(=O)C(OC)(OC)c1cc(C(=O)OC)[nH]c1-2 [Example 5, Trimethyl 4,4-Dimethoxy-5-oxo-4,5-dihydro-1H-pyrrolo[2,3-f]quinoline-2,7,9-tricarboxylate] | 0.8 mg/L | at least 1000 mg/L | lowest toxicity
COC(=O)c1cc(C(=O)OC)c2c(n1)C(=O)C(=O)c1cc(C(=O)OC)[nH]c1-2 [Example 2, Trimethyl 4,5-Dioxo-4,5-dihydro-1H-pyrrolo[2,3-f]quinoline-2,7,9-tricarboxylate] | 0.8 mg/L | 16 mg/L | –
O=C(O)c1cc(C(=O)O)c2c(n1)c(O)c(O)c1cc(C(=O)O)[nH]c12 [Example 3, 4,5-Dihydroxy-1H-pyrrolo[2,3-f]quinoline-2,7,9-tricarboxylic Acid] | 12.5 mg/L | 48 mg/L | –
